Laboratory results as given in US12129493B2, “Host cells and methods useful for producing unnatural terpenoids using a novel artificial metalloenzyme” (The Regents of the University of California, priority 2020, dated 2024).
Several values for one entry are separate records, joined by “and”; a condition that tells them apart may be missing. Equal values may be shown once. Entries after “also recorded” stand apart in the source; their conditions may differ.

What was measured:
E. coli BL21(DE3) cells = assay: Evaluation of the effect of Ir(Me)MPIX and cyclopropyl limonene on cell growth (OD600); format: cell-based, Escherichia coli; conditions: 30° C.
BL21(DE3) cells = assay: Cytotoxicity of Ir(Me)MPIX and cyclopropyl limonene, cell growth by OD600; conditions: for inhibition of cell growth: concentration range relevant for the study
Description: 10. […] Individual colonies from freshly transformed plates (incubated at 30° C.) were inoculated into 2 mL M9-rich media supplemented with appropriate antibiotics. A 1:100 dilution of overnight cultures into 300 μL M9-rich media was performed in a 48-well plate. […] The OD600 values were recorded by a plate reader (F200 or F200pro, Tecan) set at 30° C.
Cyclopropyl limonene; BL21(DE3) cells co-transformed with pHug21 (coding for HUG system) and pJHA110 (coding for CYP119 mutant) were grown and cultivated as described above. The stock solution of cyclopropyl limonene in ethanol was added to the cell culture to give final concentration of 0, 0.2, 1, 5, 25 mg/L cyclopropyl limonene and 1% (v/v) ethanol. The OD600 values were recorded by a plate reader (F200 or F200pro, Tecan) set at 30° C.

[1] = target: T1, Sulfolobus CYP119 (cytochrome P450 119, parent sequence SEQ ID NO: 1), apo form, CYP119-141 mutant (C317G, T213G, V254L, L155W) (Sulfolobus acidocaldarius, UniProt Q55080, C317G/L155W/T213G/V254L); assay: Binding affinity of apo-CYP119 towards Ir(Me)MPIX/hemin (intrinsic fluorescence quenching, Benesi-Hildebrand); design: species or system Sulfolobus solfataricus; conditions: excitation 294 nm, 10 mM TRIS buffer pH 8.0, Benesi-Hildebrand analysis
T1 construct: made in house
Description: Intrinsic fluorescence quenching;^8 Modified from a reported procedure, aliquots (10 μL) of metalloporphyrin stock solutions (in DMSO) were added to a solution containing 0.15 mg/L apo-CYP119 (CYP119-141 mutant, 800 μL, 10 mM TRIS buffer, pH 8.0). This addition caused the concentration of the protein to decrease from its initial value to a final concentration of 0.148 mg/L in the process. After each addition, the emission spectrum of CYP119 was recorded upon excitation at 294 nm. In quenching experiments, the concentration of the chromophore (CYP119 or porphyrin) was kept sufficiently low (<0.15) to ensure uniform light absorption throughout the sample and reduced inner filter effects. The fluorescence emission intensity was calculated as the integral of the emission spectrum in the recorded wavelength range (305-450 nm).

[2] = test system: E. coli cells expressing limonene biosynthetic pathway; assay: Effect of Ir(Me)MPIX addition on limonene titer; format: cell-based; conditions: 0.1 μM Ir(Me)MPIX in DMSO
Description: 6. Limonene biosynthesis. Chemically competent BL21(DE3) (NEB) cells were transformed with a plasmid coding for MEV pathway enzymes to produce limonene from glucose in E. coli (pJBEI6410 or pJBEI6409). […] The cultures were grown overnight at 30° C. and 200 rpm for 18 h. In a 50 mL glass culture tube, 10 mL of M9-rich media was inoculated with 100 μL of overnight starter culture and incubated at 37° C. and 200 rpm to an OD600 of ˜1. Unless otherwise indicated, the cultures were then induced by adding 50 μM IPTG (final concentration), and 10% (v/v) dodecane was added to trap the limonene produced. Upon induction, the temperature was reduced to 30° C. and expressions were allowed to continue for 24 h at 200 rpm. An aliquot of the 100 μL dodecane overlay was diluted with 900 μL ethyl acetate containing 40 mg/L beta-pinene (beta-pinene as internal standard) and analyzed by GC-MS.

[3] = format: cell-based, E. coli; conditions: whole cells harboring Ir-CYP119 mutants, average of three biological repeats
[4] = Cyclopropanation of (−)-limonene by Ir-CYP119 reconstituted in vitro or free cofactor; format: biochemical; conditions: Ir-CYP119 mutants reconstituted in vitro, average of two replicates
Description: 12. […] The buffer of the protein solution was subsequently exchanged to TRIS buffer (20 mM, pH 7.5) using a NAP-10 column (GE Healthcare). […] To the reaction vial, 10 μL of 0.125 M stock solution of limonene in EtOH was added. The reaction vial was sealed with a cap containing a septum. The syringes of a multichannel syringe pump were loaded with a stock solution of EDA in DMSO (20 μL of 0.25 M solution of EDA in DMSO), and the EDA solution was added to the reaction over 1.5 h. The reaction was quenched upon the conclusion of the addition of EDA by adding 100 μL of 2 N HCl and extracted with 1 mL dodecane stock solution (0.1% (v/v) in ethyl acetate). The organic layer was then transferred to a separate vial for GC analysis.

CYP119 [5] = target: T2, CYP119 (Sulfolobus acidocaldarius, UniProt Q55080, C317G/L155W/T213G/V254L); assay: ICP-MS measurement of CYP119 purified from E. coli co-expressing heme transport system (100 mL culture); format: cell-based; conditions: 0.1 μM Ir(Me)MPIX, single replicates
T2 construct: made in house; host or cells: E. coli BL21(DE3), co-transformed with pHug21 (HUG) or pBbS5a (RFP control)
Description: (§1) (b) Protein purification (100 mL culture); A plasmid containing CYP119 mutant (pJHA110) was co-transformed with a plasmid (pHug21) encoding the heme transport system HUG, or an empty vector backbone (pBbS5a) into chemically competent BL21(DE3) (NEB) cells. Individual colonies from freshly transformed plates were inoculated into 4 mL M9-rich media supplemented with 100 μg/mL carbenicillin and 25 μg/mL kanamycin. The cultures were grown overnight at 37° C. and 200 rpm. In a 500 mL Erlenmeyer flask, 100 mL of M9-rich media was inoculated with 1 mL of overnight starter culture and incubated at 37° C. and 200 rpm to an OD600 of 0.7˜0.8. […] Upon induction, the incubation temperature was reduced to 30° C., and expressions were allowed to continue for 18 h at 200 rpm. Cells were harvested by centrifugation and stored at −20° C. until purification.
(§2) Cell debris was removed by centrifugation (10000 rpm, 45 min, 4° C.). The supernatants were incubated with Ni-NTA agarose (50% suspension, 4 mL) on a tube rotator (15 min, 4° C., 20 rpm) and poured into glass frits (coarse, 50 mL). The resin was washed (3×35 mL) with Ni-NTA lysis buffer (50 mM NaPi, 250 mM NaCl, 10 mM Imidazole, pH 8.0). The desired protein was eluded with 15 mL Ni-NTA elusion buffer (50 mM NaPi, 250 mM NaCl, 250 mM Imidazole, pH 8.0) and concentrated to 1 mL with a 30 kDa molecular weight cut-off Amicon centrifugal filtration device (EMD Millipore).
(§3) (c) ICP-MS analysis; Cone. HNO3 was added to each sample (1 mL) in to make a final concentration of 4% (v/v). After microwave digestion (140° C., 30 min), the samples were analyzed by ICP-MS (Elemental Analysis Core, Oregon Health & Science University).

CYP119 [6] = target: T2, CYP119; assay: Fe and Ir content of CYP119 purified from HUG/CYP119 E. coli (700 mL culture); format: cell-based; conditions: 0.2 mg/L Ir(Me)MPIX
Description: as §1, with “(b) Protein purification (100 mL culture); A plasmid containing CYP119 mutant (pJHA110) was co-transformed with a plasmid (pHug21) encoding the heme transport system HUG, or an empty vector backbone (pBbS5a) into chemically competent BL21(DE3) (NEB) cells.” left out
as §2, §3

[7] = 0, 0.1, 1, 10 μM Ir(Me)MPIX, M9-rich media

CCOC(=O)[C@H]1C[C@@]1(C)[C@@H]1CC=C(C)CC1 [cyclopropyl limonene]
effect on growth of BL21(DE3) cells co-transformed with pHug21 and pJHA110 (encoding CYP119) (E. coli BL21(DE3) cells; 0, 0.2, 1, 5, 25 mg/L cyclopropyl limonene, 1% (v/v) ethanol): little effect on the growth | effect on cell growth (BL21(DE3) cells; BL21(DE3) with pHug21 and pJHA110, 0-25 mg/L): little effect | inhibition of cell growth (BL21(DE3) cells): did not inhibit cell growth

CCC1=C(C)c2cc3[n-]c(cc4[n-]c(cc5nc(cc1n2)C(C)=C5CC)c(C)c4CCC(=O)O)c(CCC(=O)O)c3C.[CH3-].[Ir+3] [Ir(Me)MPIX]
effect on growth of BL21(DE3) cells expressing the HUG system (E. coli BL21(DE3) cells; [7]): little effect on the growth | effect on growth of BL21(DE3) cells transformed with an empty vector pBbS5K (E. coli BL21(DE3) cells; [7]): little effect on the growth | effect on cell growth (BL21(DE3) cells; BL21(DE3) expressing the HUG system, 0-10 μM): little effect | effect on cell growth (BL21(DE3) cells; BL21(DE3) with empty vector pBbS5K, 0-10 μM): little effect | inhibition of cell growth (BL21(DE3) cells): did not inhibit cell growth | Kb [1]: 4.2(0.3) × 10^5 M^−1 | Kd ([1]; read-out: Kd): 2400 nM | effect on limonene titer [2]: unaffected; also recorded: little impact

B1: P/256W: CYP119 mutant (C317G, T213G, V254L, L155W, R256W) (protein, UniProt Q55080 1-368, looked up, variant C317G T213G V254L L155W R256W)
Cytochrome P450 119: MYDWFSEMRKKDPVYYDGNIWQVFSYRYTKEVLNNFSKFSSDLTGYHERLEDLRNGKIRFDIPTRYTMLTSDPPLHDELRSMSADIFSPQKLQTLETFIRETTRSLLDSIDPREDDIVKKLAVPLPIIVISKILGLPIEDKEKFKEWSDLVAFRWGKPGEIFELGKKYLELIGYVKDHLNSGTEVVSRVVNSNLSDIEKLGYIILLLIAGNEGTTNLISNSVIDFTRFNLWQRIREENLYLKAIEEALRYSPPLMWTVRKTKERVKLGDQTIEEGEYVRVWIASANRDEEVFHDGEKFIPDRNPNPHLSFGSGIHLGLGAPLARLEARIAIEEFSKRFRHIEILDTEKVPNEVLNGYKRLVVRLKSNE
in vivo diastereoselectivity (P2/Ptotal) [3]: 63% | in vitro diastereoselectivity (P2/Ptotal) [4]: 48%

B2: P (C317G, T213G, V254L, L155W): parent CYP119 mutant (C317G, T213G, V254L, L155W) (protein)
chain: MYDWFSEMRKKDPVYYDGNIWQVFSYRYTKEVLNNFSKFSSDLTGYHERLEDLRNGKIRFDIPTRYTMLTSDPPLHDELRSMSADIFSPQKLQTLETFIRETTRSLLDSIDPREDDIVKKLAVPLPIIVISKILGLPIEDKEKFKEWSDLVAFRWGKPGEIFELGKKYLELIGYVKDHLNSGTEVVSRVVNSNLSDIEKLGYIILLLIAGNEGTTNLISNSVIDFTRFNLWQRIREENLYLKAIEEALRYSPPLMRTVRKTKERVKLGDQTIEEGEYVRVWIASANRDEEVFHDGEKFIPDRNPNPHLSFGSGIHLGLGAPLARLEARIAIEEFSKRFRHIEILDTEKVPNEVLNGYKRLVVRLKSNE
in vivo diastereoselectivity (P2/Ptotal) [3]: 53% | in vitro diastereoselectivity (P2/Ptotal) [4]: 20%

B3: RFP/CYP119: CYP119 purified from E. coli transformed with pBbS5a (RFP control) and pJHA110 (protein, UniProt Q55080 1-368, looked up)
Cytochrome P450 119: MYDWFSEMRKKDPVYYDGNIWQVFSYRYTKEVLNNFSKFSSDLTGYHERLEDLRNGKIRFDIPTRYTMLTSDPPLHDELRSMSADIFSPQKLQTLETFIRETTRSLLDSIDPREDDIVKKLAVPLPIIVISKILGLPIEDKEKFKEWSDLVAFRLGKPGEIFELGKKYLELIGYVKDHLNSGTEVVSRVVNSNLSDIEKLGYIILLLIAGNETTTNLISNSVIDFTRFNLWQRIREENLYLKAIEEALRYSPPVMRTVRKTKERVKLGDQTIEEGEYVRVWIASANRDEEVFHDGEKFIPDRNPNPHLSFGSGIHLCLGAPLARLEARIAIEEFSKRFRHIEILDTEKVPNEVLNGYKRLVVRLKSNE
Ir, total amount present in the purified protein (CYP119 [5]): 0.66 nmol and 0.59 nmol and 0.62 nmol

B4: HUG/CYP119: CYP119 purified from E. coli transformed with pHug21 (HUG system) and pJHA110 (protein, UniProt Q55080 1-368, looked up)
Cytochrome P450 119: MYDWFSEMRKKDPVYYDGNIWQVFSYRYTKEVLNNFSKFSSDLTGYHERLEDLRNGKIRFDIPTRYTMLTSDPPLHDELRSMSADIFSPQKLQTLETFIRETTRSLLDSIDPREDDIVKKLAVPLPIIVISKILGLPIEDKEKFKEWSDLVAFRLGKPGEIFELGKKYLELIGYVKDHLNSGTEVVSRVVNSNLSDIEKLGYIILLLIAGNETTTNLISNSVIDFTRFNLWQRIREENLYLKAIEEALRYSPPVMRTVRKTKERVKLGDQTIEEGEYVRVWIASANRDEEVFHDGEKFIPDRNPNPHLSFGSGIHLCLGAPLARLEARIAIEEFSKRFRHIEILDTEKVPNEVLNGYKRLVVRLKSNE
Ir, total amount present in the purified protein (CYP119 [5]): 3.15 nmol and 3.66 nmol and 3.08 nmol | Fe, total amount present in the purified protein (CYP119 [6]): 0.044 µmol and 0.031 µmol and 0.035 µmol | Fe:CYP119 (molar ratio) (CYP119 [6]): 12.4% and 8.5% and 9.1% | Ir, total amount present in the purified protein (CYP119 [6]): 0.039 µmol and 0.040 µmol and 0.041 µmol | Ir:CYP119 (molar ratio) (CYP119 [6]): 11.0% and 11.1% and 10.8%

B5: ChuA/Ton/CYP119: CYP119 purified from E. coli transformed with pJHA184 (ChuA and Ton complex) and pJHA110 (protein, UniProt Q55080 1-368, looked up)
Cytochrome P450 119: MYDWFSEMRKKDPVYYDGNIWQVFSYRYTKEVLNNFSKFSSDLTGYHERLEDLRNGKIRFDIPTRYTMLTSDPPLHDELRSMSADIFSPQKLQTLETFIRETTRSLLDSIDPREDDIVKKLAVPLPIIVISKILGLPIEDKEKFKEWSDLVAFRLGKPGEIFELGKKYLELIGYVKDHLNSGTEVVSRVVNSNLSDIEKLGYIILLLIAGNETTTNLISNSVIDFTRFNLWQRIREENLYLKAIEEALRYSPPVMRTVRKTKERVKLGDQTIEEGEYVRVWIASANRDEEVFHDGEKFIPDRNPNPHLSFGSGIHLCLGAPLARLEARIAIEEFSKRFRHIEILDTEKVPNEVLNGYKRLVVRLKSNE
Ir, total amount present in the purified protein (CYP119 [5]): 0.83 nmol and 0.69 nmol and 0.87 nmol
